Results on 4 compounds are retold here after ChEMBL document CHEMBL1201862, “PubChem BioAssay data set” (2004).

Some test systems named below: UO-31; HCC 2998; MOLT-4; COLO 205; KM12; HCT-116; UACC-257; RXF 393; SK-MEL-28; NCI-H460; EKVX; SNB-78; SK-MEL-2; SK-MEL-5; OVCAR-4; NCI-H23; HCT-15; M19-MEL; SF-539; A549.
Common to all, as to assay: inhibition of tumour cell growth, NCI panel, 48 h

Molecules are shown by their SMILES.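 A five-concentration, 48-hour dose response in 96-well plates underlies each endpoint, interpolated linearly between surrounding concentrations. GI50 is the concentration that inhibits growth by half.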 Activity calls are given as the source filed them. Rule as the data show it: active = GI50 up to about 1.1 µM and inactive = higher.

As to `COC(=O)C(=O)C(C(=O)Nc1cccc(C)c1C)C1Sc2ccccc2NC1=O` (stereo not given), the GI50 in the assay on UO-31 was > 25 µM (inactive); with HCC 2998, 15.6 µM (inactive); with MOLT-4, > 25 µM (inactive); with COLO 205, 8.97 µM (inactive); in the assay with KM12 it was 7.69 µM (inactive); in the assay with HCT-116, 8.22 µM (inactive). Further, the GI50 is 16.4 µM (inactive) in the assay with UACC-257; 7.55 µM (inactive) in the assay with RXF 393; 14.6 µM (inactive) in the assay on SK-MEL-28; 13.4 µM (inactive) in the assay on NCI-H460; > 25 µM (inactive) in the assay on EKVX; 21.2 µM (inactive) with SNB-78. Moreover, the GI50 with SK-MEL-2 is 5.75 µM (inactive); in the assay on SK-MEL-5, 8.11 µM (inactive); in the assay on OVCAR-4, > 25 µM (inactive); with NCI-H23, > 25 µM (inactive); with HCT-15, 11.4 µM; in the assay on M19-MEL, 14.6 µM (inactive). Also, the GI50 in the assay on SF-539 was 12 µM (inactive); in the assay on A549, 10.9 µM (inactive).

As for `CC1CC=CC(O)C1` (stereo not given), the GI50 with UO-31, in the assay on HCC 2998, in the assay with MOLT-4, in the assay with COLO 205, in the assay with KM12 and in the assay with HCT-116 was > 100 µM (inactive) in each case. Further, the GI50 in the assay with UACC-257, in the assay on RXF 393, in the assay on SK-MEL-28, in the assay on NCI-H460, in the assay with EKVX and with SNB-78 was > 100 µM (inactive) each time. Further, the GI50 with SK-MEL-2 was > 100 µM (inactive); in the assay on SK-MEL-5 it was > 100 µM (inactive); with OVCAR-4 it was > 100 µM (inactive); in the assay on NCI-H23, > 100 µM (inactive); in the assay on HCT-15, more than 100 µM; in the assay with M19-MEL, > 100 µM (inactive). In addition, the GI50 in the assay on SF-539 and in the assay with A549 was > 100 µM (inactive) in each case.

Consider `COCC1N=C(c2cc(OC)c(OC)c(OC)c2-c2cc3c(cc2[C@@H](C)O)OCO3)O[C@H]1c1ccccc1` (stereo not given in full), for which the GI50 with UO-31, with HCC 2998, in the assay with MOLT-4, in the assay with COLO 205, in the assay on KM12 and with HCT-116 was > 100 µM (inactive) in each case. Also, the GI50 with UACC-257 was > 100 µM (inactive); with RXF 393 it was 33.7 µM (inactive); with SK-MEL-28, > 68.4 µM (inactive); in the assay on NCI-H460 it was > 71.8 µM (inactive); in the assay on EKVX, 36.8 µM (inactive); in the assay with SNB-78 it was > 45.2 µM (inactive). In addition, the GI50 is > 53.3 µM (inactive) in the assay with SK-MEL-2; > 76.7 µM (inactive) in the assay with SK-MEL-5; 37.6 µM (inactive) in the assay on OVCAR-4; 51.6 µM (inactive) in the assay with NCI-H23; more than 100 µM with HCT-15; > 90.8 µM (inactive) in the assay on M19-MEL. Besides, the GI50 in the assay with SF-539 is 77.4 µM (inactive); in the assay with A549 it was > 57.3 µM (inactive).

For the compound `COc1cc(C2c3cc4c(cc3[C@@H](Nc3cccc([N+](=O)[O-])c3)C3COC(=O)[C@H]23)OCO4)cc(OC)c1O` (stereo not given in full), the GI50 is 2.23 µM (inactive) in the assay with UO-31; 2.33 µM (inactive) in the assay with HCC 2998; 0.29 µM (active) in the assay with MOLT-4; 1.35 µM (inactive) in the assay with COLO 205; 3.01 µM (inactive) in the assay with KM12; 1.99 µM (inactive) with HCT-116. Besides, the GI50 with UACC-257 is 4.73 µM (inactive); in the assay on RXF 393, 2.21 µM (inactive); with SK-MEL-28 it was 5.36 µM (inactive); in the assay on NCI-H460, 0.02 µM (active); with EKVX, 3.56 µM (inactive); in the assay with SNB-78, 5.66 µM (inactive). Besides, the GI50 is 5.4 µM (inactive) in the assay on SK-MEL-2; 1.88 µM (inactive) in the assay with SK-MEL-5; 20.2 µM (inactive) in the assay with OVCAR-4; 1.55 µM (inactive) in the assay on NCI-H23; 1.39 µM in the assay with HCT-15; 4.01 µM (inactive) with M19-MEL. Further, the GI50 in the assay with SF-539 was 1.43 µM (inactive); in the assay on A549, 0.2 µM (active).
